Measurements: PMC3681751, “Identification of a Novel Antimicrobial Peptide from Human Hepatitis B Virus Core Protein Arginine-Rich Domain (ARD)” (PLoS Pathogens, 2013)
Residues, ends and D or L forms follow the SMILES beside them.

Legend:
[1] = In vitro peptide-LPS binding on streptavidin beads (LAL test); parameters: species or system Pseudomonas aeruginosa; conditions: biotinylated peptide 0-2.5 µM on streptavidin beads, 5 µg/ml LPS; unbound LPS by LAL test; triplicates
Procedure: Several kinds of peptide-LPS or peptide-Lipid A binding assays were performed in this study: 1) Streptavidine-conjugated beads (Dynabeads MyOne Streptavidin T1, Invitrogen) were blocked by P. aeruginosa LPS (Sigma) at 37°C for 1.5 hour. After washing with PBST (PBS, pH 7.4 containing 0.1% (w/v) Tween-20), aliquots containing 250 pmol streptavidine-conjugated beads were incubated with a reaction mixture overnight at 4°C. The reaction mixture was prepared by mixing increasing amounts of biotinylated peptide HBc147-183 (0, 0.004, 0.02, 0.1, 0.5 and 2.5 µM) and 5 µg/ml P. aeruginosa LPS (Sigma) or 200 µg/ml E. coli lipid A (Sigma), at 37°C for 3 hour. After incubation overnight at 4°C, the reduction of LPS (or Lipid A) in the supernatants were measured by the Limulus Amebocyte Lysate (LAL) test (Charles River Endosafe) with an ELISA reader (Molecular Devices). The amount (EU/ml) of LPS was calculated according to the standard curve prepared with Endosafe Control Srandard Endotoxin. […] After trypsinization, the trypsin-released LPS in the supernatants were collected and measured by the Limulus Amebocyte Lysate (LAL) test. […] Plate-bound HBc147-183 was measured by streptavidin conjugated with HRP (1∶10000 dilution) for 1 hour at 37°C. […] The absorption was measured at 450 nm with a reference wavelength at 655 nm.

[2] = tested on: human red blood cells (hRBCs); test: Hemolytic activity; type: cell-based; conditions: 10% hRBCs in PBS, 1 h at 37°C, absorbance 405 nm; 100% = 1% Triton X-100; triplicates
Procedure: The hemolytic activities of peptides were determined by hemolysis against human red blood cells (hRBCs). Human blood was obtained in EDTA-containing tube and was centrifuged at 450 g for 10 min. The pellet was washed three times with PBS buffer, and a solution of 10% hRBCs was prepared. hRBCs solution was mixed with serial dilutions of peptides in PBS buffer, and the reaction mixtures were incubated for 1 h at 37°C. After centrifugation at 450 g for 10 min, the percentage of hemolysis was determined by measuring the absorbance at the wavelength of 405 nm of the supernatant. Blank and 100% hemolysis were determined in PBS buffer and in the presence of 1% Triton X-100, respectively.

P. aeruginosa = test: Killing kinetics; type: cell-based, Pseudomonas aeruginosa; conditions: 2 µM peptide (1×MBC), 37°C, triplicates
Procedure: (§1) For measurement of killing kinetics, bacteria and peptides were prepared as described above. Fifty µl of bacteria were mixed with fifty µl of peptides at the concentrations corresponding to MBC and were incubated at 37°C. At the indicated time, bacteria were serially diluted and placed on Mueller-Hinton broth agar plates for the viability measurement.

ICR mice = test: Acute in vivo toxicity; parameters: species or system mouse; conditions: three-week old male ICR mice, 7 days, n = 5
Procedure: Three-week old male ICR mice (19 to 21 g) were purchased from BioLASCO (Taiwan). Overnight culture of bacteria in BHI broth (Difco) was subcultured in fresh BHI broth to log phase. Inoculums were diluted in BHI broth to indicated densities. To test the acute toxicity of ARD peptide in vivo, ICR male mice were inoculated intraperitoneally (i.p.) with 10 and 20 mg/kg HBc147-183 in PBS, respectively. Each group contained 5 mice. After peptide injection, the number of dead mice was recorded daily for 7 days post-injection. To test the antimicrobial activity of the ARD peptide in vivo, all mice were inoculated i.p. with Staphylococcus aureus ATCC 19636 (4×10^6 CFU/mouse) in BHI broth. Peptide HBc147-183 (10 mg/kg) was administered i.p. at 1, 1.5 and 2 hours post-inoculation. PBS (10 ml/kg) control was administered at 1 hour post-inoculation. […] Mortality was monitored daily for 7 days post-inoculation. […] The mice were anesthetized first before transferring to the IVIS imaging system (IVIS spectrum), and luminescence was measured with an exposure time of 1 minutes or less. The image system measured the number of photons and translated the data to false color images that depicted the region of strong luminescence with red, moderate luminescence with yellow and green, and mild luminescence with blue. […] Total flux (RLU) of region of interest (ROI) was quantified by the IVIS imaging software.

E. coli = test: SYTOX Green uptake (membrane permeabilization); type: cell-based, Escherichia coli; conditions: 4 µM peptide; 10^7 CFU, 1 µM SYTOX Green, 37°C
Procedure: Briefly, bacteria (10^7 CFU) were prepared and mixed with 1 µM SYTOX Green (Invitrogen) for 15 minutes in the dark. […] Melittin (Sigma), the major toxin of bee venom, was used as a positive control to provide maximal permeabilization.

K. pneumonia = test: Killing kinetics; type: cell-based, Klebsiella pneumoniae; conditions: 4 µM peptide, 37°C, triplicates
Procedure: as §1

Compound: CC(C)[C@H](NC(=O)[C@@H](NC(=O)[C@@H](N)[C@@H](C)O)C(C)C)C(=O)N[C@@H](CCCNC(=N)N)C(=O)N[C@@H](CCCNC(=N)N)C(=O)N[C@@H](CCCNC(=N)N)C(=O)NCC(=O)N[C@@H](CCCNC(=N)N)C(=O)N[C@@H](CO)C(=O)N1CCC[C@H]1C(=O)N[C@@H](CCCNC(=N)N)C(=O)N[C@@H](CCCNC(=N)N)C(=O)N[C@@H](CCCNC(=N)N)C(=O)N[C@H](C(=O)N1CCC[C@H]1C(=O)N[C@@H](CO)C(=O)N1CCC[C@H]1C(=O)N[C@@H](CCCNC(=N)N)C(=O)N[C@@H](CCCNC(=N)N)C(=O)N[C@@H](CCCNC(=N)N)C(=O)N[C@@H](CCCNC(=N)N)C(=O)N[C@@H](CO)C(=O)N[C@@H](CCC(N)=O)C(=O)N[C@@H](CO)C(=O)N1CCC[C@H]1C(=O)N[C@@H](CCCNC(=N)N)C(=O)N[C@@H](CCCNC(=N)N)C(=O)N[C@@H](CCCNC(=N)N)C(=O)N[C@@H](CCCNC(=N)N)C(=O)N[C@@H](CO)C(=O)N[C@@H](CCC(N)=O)C(=O)N[C@@H](CO)C(=O)N[C@@H](CCCNC(=N)N)C(=O)N[C@@H](CCC(=O)O)C(=O)N[C@@H](CO)C(=O)N[C@@H](CCC(N)=O)C(=O)N[C@@H](CS)C(=O)O)[C@@H](C)O [HBc147-183] (H-TVVRRRGRSPRRRTPSPRRRRSQSPRRRRSQSRESQC-OH; N-terminus and C-terminus assumed)
- Binding to LPS [1]: capable of binding to LPS
- Hemolysis [2]: no detectable hemolysis
- Time to complete killing (P. aeruginosa): ≤ 20 min
- Survival after peptide injection (in vivo toxicity) (ICR mice; 10 mg/kg i.p.): All mice were alive
- Survival after peptide injection (in vivo toxicity) (ICR mice; 20 mg/kg i.p.): All mice were alive
- Membrane permeabilization (SYTOX Green uptake) (E. coli): not able to induce membrane permeabilization
- Time to complete killing (K. pneumonia): 180 min
